Experimental data taken from publication PMC3334838 (Chemistry & biology, 2012).

Assays:
Erk2 [1] = target: T1, Erk2 (Homo sapiens, UniProt P28482); assay: KINOMEscan displacement assay, Erk2; assay type: binding; conditions: 10 μM inhibitor
Erk2 [2] = target: T1, Erk2; assay: Erk2 in vitro kinase assay; assay type: biochemical
[3] = tested on: Rat-2 cells expressing c-Fes-L145P; assay: Soft-agar colony formation, Rat-2 fibroblasts transformed by c-Fes-L145P; assay type: cell-based, rodent
[4] = tested on: Rat-2 cells expressing c-Fes/v-Fps chimera; assay: Soft-agar colony formation, Rat-2 fibroblasts transformed by c-Fes/v-Fps chimera; assay type: cell-based, rodent
[5] = tested on: Rat-2 cells transformed by Hck-YF; assay: Soft-agar colony formation, Rat-2 fibroblasts transformed by active Hck; assay type: cell-based, rodent
[6] = tested on: control Rat-2 cells expressing GFP alone; assay: Growth of control Rat-2 cells in monolayer culture; assay type: cell-based, rodent
[7] = target: Hck-TMYF gatekeeper mutant (Homo sapiens, UniProt P08631, T333M/Y522F); assay type: cell-based
Chain of Hck-TMYF gatekeeper mutant (P08631 22-526 T333M/Y522F limits assumed): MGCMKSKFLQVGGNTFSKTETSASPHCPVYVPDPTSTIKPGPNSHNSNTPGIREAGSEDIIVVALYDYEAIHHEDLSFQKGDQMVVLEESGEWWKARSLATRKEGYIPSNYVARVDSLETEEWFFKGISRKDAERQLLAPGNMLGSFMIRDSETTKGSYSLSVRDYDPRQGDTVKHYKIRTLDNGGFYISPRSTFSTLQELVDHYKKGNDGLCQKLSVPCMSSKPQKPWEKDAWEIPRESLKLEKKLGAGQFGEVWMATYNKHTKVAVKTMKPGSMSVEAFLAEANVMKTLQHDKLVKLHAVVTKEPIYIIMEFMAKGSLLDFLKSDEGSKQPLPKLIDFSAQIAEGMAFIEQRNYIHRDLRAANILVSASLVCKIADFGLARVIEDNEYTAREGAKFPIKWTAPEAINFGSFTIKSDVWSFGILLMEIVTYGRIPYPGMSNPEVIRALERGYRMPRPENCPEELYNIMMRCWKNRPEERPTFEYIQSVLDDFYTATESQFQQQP

Hck-YF = Hck-YF (Homo sapiens, UniProt P08631, Y522F); assay: Kinase autophosphorylation in transformed Rat-2 cells by immunoblotting, Hck-YF; assay type: cell-based
Chain of Hck-YF (P08631 22-526 Y522F limits assumed): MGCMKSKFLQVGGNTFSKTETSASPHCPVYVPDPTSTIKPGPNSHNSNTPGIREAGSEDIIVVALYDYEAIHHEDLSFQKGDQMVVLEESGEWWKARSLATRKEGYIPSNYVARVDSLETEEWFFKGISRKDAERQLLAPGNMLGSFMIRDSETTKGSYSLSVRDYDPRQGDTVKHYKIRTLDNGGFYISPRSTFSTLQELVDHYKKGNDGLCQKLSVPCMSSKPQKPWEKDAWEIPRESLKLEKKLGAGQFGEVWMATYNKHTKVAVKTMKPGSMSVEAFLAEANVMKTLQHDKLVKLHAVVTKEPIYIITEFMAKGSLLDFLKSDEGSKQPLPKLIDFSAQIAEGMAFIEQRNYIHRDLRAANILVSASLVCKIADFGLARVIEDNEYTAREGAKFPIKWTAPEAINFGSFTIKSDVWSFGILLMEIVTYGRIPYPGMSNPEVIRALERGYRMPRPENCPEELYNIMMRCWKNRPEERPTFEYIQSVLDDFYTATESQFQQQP

[8] = tested on: bone marrow-derived macrophages (BMM); assay: Osteoclast differentiation assay; assay type: cell-based, mouse; conditions: M-CSF and RANKL
RAW 264.7 cells = assay: Osteoclast differentiation assay; assay type: cell-based, mouse
[9] = Rat2, read-out: inhibition of soft-agar colony formation

T1 sequence (P28482 whole entry): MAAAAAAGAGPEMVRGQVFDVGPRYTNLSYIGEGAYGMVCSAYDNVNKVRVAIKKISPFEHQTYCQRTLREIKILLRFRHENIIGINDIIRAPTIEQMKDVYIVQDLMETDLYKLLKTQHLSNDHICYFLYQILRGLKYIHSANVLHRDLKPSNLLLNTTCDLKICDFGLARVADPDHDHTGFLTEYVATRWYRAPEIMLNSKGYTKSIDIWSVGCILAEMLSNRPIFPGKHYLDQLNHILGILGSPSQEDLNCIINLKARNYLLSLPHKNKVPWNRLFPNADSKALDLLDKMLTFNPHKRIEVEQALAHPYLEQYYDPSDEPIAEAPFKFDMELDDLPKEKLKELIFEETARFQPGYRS

## COc1cc(N2CCC(N3CCN(C)CC3)CC2)ccc1Nc1ncc(Cl)c(Nc2ccccc2S(=O)(=O)C(C)C)n1 [TAE684]
Erk2 [1]
  displacement score for Erk2: 0.3
Erk2 [2]
  potency towards Erk in an in vitro kinase assay: very low potency
[3]; [9]
  inhibition at 0.1 µM: > 50%
[3]; c-Fes transformants, 1 μM
  soft-agar colony growth: Complete loss
[3]; c-Fes-L145P
  concentration giving complete inhibition of soft-agar colony formation: 600 nM
[4]; [9]
  inhibition at 0.1 µM: > 50%
[4]; c-Fes/v-Fps
  concentration giving complete inhibition of soft-agar colony formation: 400 nM
[5]; 200 nM
  inhibition of Hck-mediated soft-agar colony formation: only minimal inhibition
[5]; Hck transformants, 1 μM
  soft-agar colony growth: Complete loss
[6]; 100 nM
  growth of control Rat-2 cells in monolayer culture: only slightly reduced
[6]; 1 μM, after 72 hrs
  reduction of growth of control Rat-2 cells expressing GFP alone: 50%
[6]; 3 μM
  growth of control Rat-2 cells expressing GFP alone: completely abolished
[7]
  IC50: 0.685 µM
Hck-YF
  IC50: > 10 µM
[8]
  IC50 values for inhibition of osteoclast differentiation (in words): submicromolar range
RAW 264.7 cells; RAW 264.7, RANKL and VEGF
  inhibition of osteoclast differentiation compared with BMM: Very similar results

## Nc1[nH]nc2nnc(-c3c(-c4ccccc4)nn4ccccc34)cc12 [FR180204]
RAW 264.7 cells; RAW 264.7, 1 μM or 10 μM
  effect on osteoclast differentiation: did not influence
